Data as given in patent US20240174690A1, “ANNULATED 2-AMINO-3-CYANO THIOPHENES AND DERIVATIVES FOR THE TREATMENT OF CANCER” (BOEHRINGER INGELHEIM INTERNATIONAL GMBH, priority 2021, published 2024).
Where two headings read alike, the source gives them in different places.

Experiments:
[1] = system: KRAS G12D-dependent Ba/F3 cells; assay: Ba/F3 proliferation assay, KRAS G12D; format: cell-based; conditions: AlamarBlue
Method in brief: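 IL-3-independent Ba/F3 lines driven by transduced KRAS G12C, G12D or G12V, with puromycin withdrawn about ten days before testing. Viability after compound treatment measured by AlamarBlue fluorescence in duplicate, and values derived by curve fitting.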

NCI-H2122 cells = assay: NCI-H2122 CTG proliferation assay (120 h) (NSCLC, G12C); format: cell-based
Method in brief: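 Proliferation was read by CellTiter-Glo luminescence after 120 h of compound exposure, starting one day after seeding 200 NCI-H2122 (G12C) cells per well in RPMI/10% FCS. RLU relative to DMSO wells gave percent viability, and four-parameter nonlinear regression gave IC50.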

SK-CO-1 cells = assay: SK-CO-1 CTG proliferation assay (120 h) (CRC, G12V); format: cell-based; conditions: SK-CO-1 cells (CRC, G12V), CTG 120 h
Method in brief: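 Compound exposure lasted 120 h in KRAS G12V SK-CO-1 cells seeded overnight at 500 cells/well in 10% FCS EMEM. CellTiter-Glo RLU normalised to DMSO wells gave percent viability, and a four-parameter model fit yielded IC50.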

NCI-H358 cells = assay: NCI-H358 CTG proliferation assay (120 h) (NSCLC, G12C); format: cell-based, human; conditions: Homo sapiens, assay 2, CTG, read-out: H358 (assay 2) IC50
Method in brief: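 IC50 values derive from four-parameter nonlinear regression of CellTiter-Glo viability (RLU relative to DMSO wells) after 120 h of exposure. Cells were plated in RPMI-1640 + 10% FCS at 2000 per well (assay 1) or 200 per well (assay 2). Untreated cells were measured at compound addition as T0.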

SMILES	IC50 ([1]; Mus musculus, BaF3, 72 h) [nM]	IC50 ([1]; 72 h) [nM]	IC50 (NCI-H2122 cells) [nM]	IC50 (SK-CO-1 cells) [nM]	IC50 (NCI-H358 cells) [nM]	IC50 (NCI-H2122 cells; Homo sapiens) [nM]	IC50 (SK-CO-1 cells; Homo sapiens) [nM]
C[C@H](Oc1nc(-c2onc3c2CCC[C@@]32CCCc3sc(N)c(C#N)c32)cc(N2CCNC3(CC3)C2)n1)[C@@H]1CCCN1C [I-2]	124	–	–	–	–	–	–
C[C@H](Oc1cc(-c2ccn(C)n2)nc(-c2onc3c2CCC[C@@]32CCCc3sc(N)c(C#N)c32)n1)[C@@H]1CCCN1C [I-21]	–	14	1430	30	–	–	–
C[C@H](O)Cn1ccc(-c2cc(O[C@@H](C)[C@@H]3CCCN3C)nc(-c3onc4c3CCC[C@@]43CCCc4sc(N)c(C#N)c43)n2)n1 [I-31]	43	–	–	–	266	–	–
C[C@H](Oc1cc(-c2ccn3ncnc3c2)nc(-c2onc3c2CCC[C@@]32CCCc3sc(N)c(C#N)c32)n1)[C@@H]1CCCN1C [I-33]	81	–	–	–	–	1420	181
C[C@H](Oc1cc(N2CCN(C)C3(COC3)C2)nc(-c2onc3c2CCC[C@@]32CCCc3sc(N)c(C#N)c32)n1)[C@@H]1C[C@@H](F)CN1C [I-37]	78	–	–	–	3890	–	1080
C[C@H](Oc1cc(N2CCN(C)C3(CC3)C2)nc(-c2onc3c2CCC[C@@]32CCCc3sc(N)c(C#N)c32)n1)[C@@H]1C[C@@H](F)CN1C [I-39]	34	–	–	–	1450	–	2070
C[C@H](Oc1nc(-c2onc3c2CCC[C@@]32CCCc3sc(N)c(C#N)c32)cc(N2CCN(C)C3(CC3)C2)n1)[C@@H]1CCCN1C [I-40]	243	–	–	–	–	–	–
C[C@H](Oc1cc(N2CCN(C)C3(CC3)C2)nc(-c2onc3c2CCC[C@@]32CCCc3sc(N)c(C#N)c32)n1)[C@@H]1CCCN1C [I-41]	11	–	–	–	–	3560	2760
C[C@H]1CN(C)CCCN1c1nc(-c2onc3c2CCC[C@@]32CCCc3sc(N)c(C#N)c32)cc(N2CCN(C)C3(CC3)C2)n1 [I-42]	440	–	–	–	–	–	–
C[C@H](Oc1cc(N2C[C@H](C)N(C)[C@@H](C)C2)nc(-c2onc3c2CCC[C@@]32CCCc3sc(N)c(C#N)c32)n1)[C@@H]1CCCN1C [I-43]	63	–	–	–	–	1410	892
C[C@H](Oc1cc(N2CCNC3(CC3)C2)nc(-c2onc3c2CCC[C@@]32CCCc3sc(N)c(C#N)c32)n1)[C@@H]1C[C@@H](F)CN1C [I-45]	11	–	–	–	470	–	763
CO[C@H]1CCN(C)[C@@H]1[C@H](C)Oc1cc(-n2ccc(CC(=O)NC(C)C)n2)nc(-c2onc3c2CCC[C@@]32CCCc3sc(N)c(C#N)c32)n1 [I-48]	24	–	–	–	4	–	14
CO[C@H]1CCN(C)[C@@H]1[C@H](C)Oc1cc(N2CCNC3(CC3)C2)nc(-c2onc3c2CCC[C@@]32CCCc3sc(N)c(C#N)c32)n1 [I-49]	3	–	–	–	145	–	515
CO[C@@H]1C[C@@H]([C@H](C)Oc2cc(N3CCN(C)C4(CC4)C3)nc(-c3onc4c3CCC[C@@]43CCCc4sc(N)c(C#N)c43)n2)N(C)C1 [I-50]	41	–	–	–	733	–	2050
CO[C@H]1CCN(C)[C@@H]1[C@H](C)Oc1cc(-n2ccc(C(=O)N[C@@H]3CCOC3)n2)nc(-c2onc3c2CCC[C@@]32CCCc3sc(N)c(C#N)c32)n1 [I-53]	12	–	–	–	1	–	7
CO[C@H]1CCN(C)[C@@H]1[C@H](C)Oc1cc(-n2ccc(C(=O)N[C@H]3CCOC3)n2)nc(-c2onc3c2CCC[C@@]32CCCc3sc(N)c(C#N)c32)n1 [I-54]	7	–	–	–	4	–	7
COCCNC(=O)c1ccn(-c2cc(O[C@@H](C)[C@@H]3[C@@H](OC)CCN3C)nc(-c3onc4c3CCC[C@@]43CCCc4sc(N)c(C#N)c43)n2)n1 [I-55]	12	–	–	–	5	–	9

SMILES	IC50 ([1]; Mus musculus, BaF3, 72 h) [nM]	IC50 ([1]; 72 h) [nM]	IC50 (NCI-H2122 cells) [nM]	IC50 (SK-CO-1 cells) [nM]	IC50 (NCI-H358 cells) [nM]	IC50 (NCI-H2122 cells; Homo sapiens) [nM]	IC50 (SK-CO-1 cells; Homo sapiens) [nM]
C[C@H](Oc1cc(-n2ccc(C(=O)N[C@@H]3CCOC3)n2)nc(-c2onc3c2CCC[C@@]32CCCc3sc(N)c(C#N)c32)n1)[C@@H]1CCCN1C [I-56]	16	–	–	–	2	–	8
C[C@H](Oc1cc(-n2ccc(C(=O)N[C@H]3CCOC3)n2)nc(-c2onc3c2CCC[C@@]32CCCc3sc(N)c(C#N)c32)n1)[C@@H]1CCCN1C [I-57]	8	–	–	–	6	–	4
COCCNC(=O)c1ccn(-c2cc(O[C@@H](C)[C@@H]3CCCN3C)nc(-c3onc4c3CCC[C@@]43CCCc4sc(N)c(C#N)c43)n2)n1 [I-58]	11	–	–	–	5	–	14
C[C@H](NC(=O)c1ccn(-c2cc(O[C@@H](C)[C@@H]3CCCN3C)nc(-c3onc4c3CCC[C@@]43CCCc4sc(N)c(C#N)c43)n2)n1)c1ccccn1 [I-59]	13	–	–	–	2	–	5
C[C@H](Oc1cc(-n2ccc(C(=O)N(C)C3COC3)n2)nc(-c2onc3c2CCC[C@@]32CCCc3sc(N)c(C#N)c32)n1)[C@@H]1CCCN1C [I-60]	22	–	–	–	4	–	21
C[C@H](Oc1cc(N2CC(N(C)C)C2)nc(-c2noc3c2CCC[C@@]32CCCc3sc(N)c(C#N)c32)n1)[C@@H]1CCCN1C [II-7]	94	–	–	–	–	3500	1240
C[C@H](Oc1cc(N2CCN(CCO)CC2)nc(-c2noc3c2CCC[C@@]32CCCc3sc(N)c(C#N)c32)n1)[C@@H]1CCCN1C [II-8]	144	–	–	–	–	933	692
C[C@H](Oc1cc(N2C[C@@H](N(C)C)[C@@H](F)C2)nc(-c2noc3c2CCC[C@@]32CCCc3sc(N)c(C#N)c32)n1)[C@@H]1CCCN1C [II-11]	85	–	–	–	–	3510	800
C[C@H](Oc1cc(N2CC[C@H](N3CCCCC3)C2)nc(-c2noc3c2CCC[C@@]32CCCc3sc(N)c(C#N)c32)n1)[C@@H]1CCCN1C [II-12]	20	–	–	–	–	1390	819
C[C@H](Oc1cc(N2CCN(C)C3(COC3)C2)nc(-c2noc3c2CCC[C@@]32CCCc3sc(N)c(C#N)c32)n1)[C@@H]1CCCN1C [II-13]	24	–	–	–	–	5020	896
C[C@H](Oc1cc(N2CC[C@H](N3CCCC3)C2)nc(-c2noc3c2CCC[C@@]32CCCc3sc(N)c(C#N)c32)n1)[C@@H]1CCCN1C [II-14]	10	–	–	–	–	1390	771
C[C@H](Oc1cc(N2CC[C@H](N(C)C)C2)nc(-c2noc3c2CCC[C@@]32CCCc3sc(N)c(C#N)c32)n1)[C@@H]1C[C@@H](F)CN1C [II-15]	14	–	–	–	–	2420	1250
C[C@H]1CN(C)CCCN1c1cc(N2CC[C@H](N(C)C)C2)nc(-c2noc3c2CCC[C@@]32CCCc3sc(N)c(C#N)c32)n1 [II-16]	183	–	–	–	–	3530	1870
C[C@@H]1CN(c2cc(O[C@@H](C)[C@@H]3C[C@@H](F)CN3C)nc(-c3noc4c3CCC[C@@]43CCCc4sc(N)c(C#N)c43)n2)CC2(CC2)N1 [II-17]	39	–	–	–	134	–	617
C[C@H](Oc1cc(N2C[C@H](C)NC3(CC3)C2)nc(-c2noc3c2CCC[C@@]32CCCc3sc(N)c(C#N)c32)n1)[C@@H]1C[C@@H](F)CN1C [II-18]	20	–	–	–	160	–	444
[2H]C([2H])([2H])N1C[C@H](F)C[C@H]1[C@H](C)Oc1cc(N2CCNC3(CC3)C2)nc(-c2noc3c2CCC[C@@]32CCCc3sc(N)c(C#N)c32)n1 [II-208]	3	–	–	–	99	–	398
[2H]C([2H])([2H])N1C[C@H](F)C[C@H]1[C@H](C)Oc1cc(N2CCN(C)C3(CC3)C2)nc(-c2noc3c2CCC[C@@]32CCCc3sc(N)c(C#N)c32)n1 [II-209]	18	–	–	–	136	–	1390
